We go through four molecules from patent US11306089B2, “Gamma-carboline compounds for the detection of Tau aggregates” (AC IMMUNE SA, priority 2018, dated 2022).

Bounds are passed on as bounds.

Experiment [1] concerns the target T1, MAO-B (Homo sapiens, UniProt P27338).
T1 construct: 20 μg of human brain homogenate (without AD pathology); from tissue; host or cells: human brain homogenate without AD pathology
T1 sequence (P27338 1-520): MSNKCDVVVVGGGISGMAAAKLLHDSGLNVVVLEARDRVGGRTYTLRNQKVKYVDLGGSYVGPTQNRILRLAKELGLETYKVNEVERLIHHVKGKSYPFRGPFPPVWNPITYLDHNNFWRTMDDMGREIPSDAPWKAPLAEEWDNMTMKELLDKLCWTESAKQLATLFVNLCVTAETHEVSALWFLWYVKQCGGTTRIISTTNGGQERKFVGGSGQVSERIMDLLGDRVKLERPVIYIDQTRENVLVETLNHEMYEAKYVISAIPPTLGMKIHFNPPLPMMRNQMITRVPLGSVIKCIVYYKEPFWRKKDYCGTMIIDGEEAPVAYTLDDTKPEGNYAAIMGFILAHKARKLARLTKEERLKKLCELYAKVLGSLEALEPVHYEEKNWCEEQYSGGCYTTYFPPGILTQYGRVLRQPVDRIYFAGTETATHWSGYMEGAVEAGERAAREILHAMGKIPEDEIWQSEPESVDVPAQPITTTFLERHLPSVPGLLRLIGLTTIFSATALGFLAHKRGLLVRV
The experiment can be described thus: Binding affinity to MAO-B in human HC brain homogenate (3H-deprenyl competition). Also noted: key to Low affinity to MAO B (IC50 in human HC brain homogenate), grade: − poor; ∘ moderate; + good; ++ very good; +++ excellent. Particulars: for IC50: 3H-deprenyl competition. Here is the method: Determination of the Binding Affinity to MAO-B in HC Brain Homogenate
20 μg of human brain homogenate (without AD pathology) was incubated with a dilution series of each test compound (1000 to 0.06 nM) in the presence of 700 Bq of ^3H-labeled MAO-B binder Deprenyl. The samples were shaken at 110 rpm for 60 min at 37° C. Samples were then filtered through GF/B 96 well filter plates and washed twice with 200 μL assay buffer (PBS containing 0.1% BSA and 2% DMSO). Thereafter, 40 μL Szintillation cocktail was added and the filter plates were sealed. The counts were then counted using a TopCount (Perkin Elmer). Non-specific signal was determined with samples containing ^3H-deprenyl in the presence of assay buffer without brain substrate and competitor. Specific binding was calculated by subtracting the non-specific signal from the measured samples signal. The unblocked ^3H-deprenyl signal was defined as total binding. IC50 values were calculated by Prism V7 (GraphPad) setting total binding to 100%.

In experiment [2] the target is T2, aggregated recombinant human K18 fibrils (Homo sapiens, UniProt P10636).
T2 construct: aggregated recombinant human K18 fibrils
As to the kind of experiment: Binding affinity to K18 Tau aggregates (3H-labeled Tau binder competition). Particulars: non-radioactive fluorine-19 derivatives; for IC50: read-out: IC50 using K18 Tau aggregates. The arrangement: key to High affinity to Tau (IC50 using K18 Tau aggregates), grade: − poor; ∘ moderate; + good; ++ very good; +++ excellent. The protocol:
Determination of the Binding Affinity to K18 Tau Aggregates
200 ng of aggregated recombinant human K18 fibrils were incubated with a dilution series of each test compound (1000 to 0.06 nM) in the presence of 3 nM of ^3H-labeled Tau binder. The samples were shaken at 110 rpm for 60 min at 37° C. Samples were then filtered through GF/B 96 well filter plates and washed twice with 200 μL assay buffer (PBS containing 0.1% BSA and 2% DMSO). Thereafter, 40 μL of MicroScint 40 was added to each well of the filter plate. Filter plates were sealed and then placed shaking at 110 rpm at 37° C. for 15 min. Measurement was done by TopCount NXT HTS (PerkinElmer). Non-specific signal was determined with samples containing ^3H-labeled Tau binder in the presence of 2.5 μM unlabeled Tau-reference binder and K18 fibrils. Specific binding was calculated by subtracting the non-specific signal from the measured samples signal. The unblocked ^3H-labeled Tau-binder signal was defined as total binding. IC50 values were calculated by Prism V7 (GraphPad) setting total binding to 100%.

Experiment [3] is described as follows: Tracer signal in HC brain homogenate compared to AD brain homogenate. The class given is binding, human. Also noted: key to Signal to noise (% signal intensity in HC brain homogenate compared to tracer signal in AD brain homogenate), grade: − poor; ∘ moderate; + good; ++ very good; +++ excellent.
A short description of experiment [4]: Tracer signal in mouse brain homogenate compared to AD brain homogenate. Also noted: key to High signal to noise (% signal intensity in mouse brain homogenate compared to tracer signal in AD brain homogenate), grade: − poor; ∘ moderate; + good; ++ very good; +++ excellent. It is filed as binding. To be noted: radioactive fluorine-18 derivatives.
Setting [5] is: radioactive fluorine-18 derivatives.

T2 sequence (P10636 561-685 limits assumed): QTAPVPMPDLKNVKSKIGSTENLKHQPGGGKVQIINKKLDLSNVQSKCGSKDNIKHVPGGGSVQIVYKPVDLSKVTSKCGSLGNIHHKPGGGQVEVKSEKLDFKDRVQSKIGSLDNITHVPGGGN

By IC50 is commonly meant the concentration needed to halve the response being measured. In the case of `Fc1ccc(-c2ccc3c(c2)[nH]c2ccncc23)cn1` [F-1, reference compound], the IC50 in experiment [1] (human HC brain homogenate) was 78 nM.

With `Fc1cc(-c2ccc3c(c2)[nH]c2ccncc23)ccn1` [F-2], the IC50 in experiment [1] (human HC brain homogenate) was determined as 778 nM.

As for `[18F]c1ccc(-c2ccc3c(c2)[nH]c2ccncc23)cn1` [^18F-1, reference compound], the IC50 amounted to 78 nM in experiment [1] (human HC brain homogenate) and 19.6 nM in experiment [2].

`[18F]c1cc(-c2ccc3c(c2)[nH]c2ccncc23)ccn1` [^18F-2]: in experiment [1] (human HC brain homogenate), the “Low affinity to MAO B (IC50 in human HC brain homogenate), grade” value is “++” and the IC50 amounted to 778 nM. The “fold higher IC50 than compound 18F-1, MAO B in HC brain homogenate” value in experiment [1] (ratio to 18F-1) is > 10 fold. Also, the “High affinity to Tau (IC50 using K18 Tau aggregates), grade” value in experiment [2] (K18 Tau aggregates) was “++”. In experiment [2], the IC50 was determined as 3 nM. The “less relative signal in HC brain homogenate ratio than 18F-1” value in experiment [3] (binding in AD brain homogenate and HC brain homogenate, difference to 18F-1) was found to be 19%. For the same molecule, in experiment [3] (setting [5]), the “% signal intensity in HC brain homogenate compared to tracer signal in AD brain homogenate” value is listed as “(66%)” and the “Signal to noise (% signal intensity in HC brain homogenate compared to tracer signal in AD brain homogenate), grade” value is recorded as “∘”. In addition, in experiment [4], the “% signal intensity in mouse brain homogenate compared to tracer signal in AD brain homogenate” value is “(57%)” and the “High signal to noise (% signal intensity in mouse brain homogenate compared to tracer signal in AD brain homogenate), grade” value is recorded as “+”.
